Assay results reported in patent US20100234238A1, “METHOD FOR PROFILING KINASE INHIBITORS” (Janssen Pharmaceutica N V, priority 2006, published 2010).
pIC50: −log10 of the molar value.

Key:
[1] = system: tyrosine kinase activity in cell line lysates; assay: Peptide array profiling of 9 cell line lysates in the presence of MTKI or Tarceva; assay type: biochemical; settings: 5 μM
Method: To test whether other EGFR inhibitors, related to MTKI, such as Tarceva (erlotinib; OSI pharmaceuticals), are also amenable to this response prediction methodology, 9 cell lines were profiled in the presence of MTKI, or Tarceva (5 μM in both cases). […] The value of the previously derived MTKI prediction peptides is illustrated in Tables 6A to C. Based on these peptides also response to Tarceva can be predicted with identical accuracy as for MTKI (and with the same false predictions, in casu H2009 and MOLT4).

[2] = system: 27 cell lines, representing diverse cancer cell types; assay: Inhibition of proliferation of cell lines in vitro (response status); assay type: cell-based; settings: response to MTKI
Method: (§1) It was tested whether the Pamchip peptide arrays are a useful tool to predict the response of a cell line to the multi-targeted kinase inhibitor, MTKI. MTKI inhibits the proliferation of a range of cell lines in vitro with widely varying IC50's. The lysates prepared from these 27 cell lines, representing diverse cancer cell types, were profiled on the peptide arrays in the absence or presence of 5 μM MTKI, in 6 replicates for each condition. In this panel, 13 cell lines were defined as responder cell lines (IC50<3 μM; cell lines are ordered according to increasing IC50 in Example 1, whereas 14 cell lines are classified as ‘non-responder’ cell lines (IC50>10 μM). Intermediary cell lines and cell lines with highly variable IC50 measurements were omitted from the analysis. The experiment included the highly responsive H3255 lung cancer cell line, which overexpresses mutant EGFR L858R. This mutant variant is highly responsive to MTKI, which is an ATP-competitive compound that binds to the active conformation of EGFR (similar to erlotinib and gefitinib). Accordingly, the most profound changes induced by MTKI in lysate kinase activity can be observed for this highly responsive cell line. To identify those peptides for which the inhibition of phosphorylation by MTKI correlates well with the response status of the cell line from which the lysate was prepared, a statistical mixed-model was set up to identify those peptides that are most likely to change after MTKI treatment in responder cell lysates compared to non-responder lysates, taken into account the inter-replicate variability (see the material and methods section for a more detailed description of the statistical test). […] To illustrate that the inhibition of the phosphorylation of these peptides in a given lysate does indeed correlate with the response of the corresponding cell line to MTKI, the following cut-off was chosen to classify responders and non-responders: minimally 4 peptides out of the 16 peptide list should be inhibited with a ratio of less than 0.8 (more than 20% inhibition) to classify as a responder. Applying this rule to all 27 cell lines indicates an overall classification accuracy of 82% (with 78% sensitivity, and 86% specificity). […] Note that the use of these […] peptides as a classification tool can be optimized according to the required sensitivity and specificity.

[3] = biological target: Her2 (Homo sapiens, UniProt P04626); assay: Her2 inhibition; assay type: biochemical
[4] = system: 27 cell lines, representing diverse cancer cell types; assay: Inhibition of proliferation of cell lines in vitro (response status); assay type: cell-based; parameters: key: R = Responder to MTKI; NR = Non-Responder to MTKI; settings: MTKI
Method: as §1

Chain of Her2 (P04626 23-1255): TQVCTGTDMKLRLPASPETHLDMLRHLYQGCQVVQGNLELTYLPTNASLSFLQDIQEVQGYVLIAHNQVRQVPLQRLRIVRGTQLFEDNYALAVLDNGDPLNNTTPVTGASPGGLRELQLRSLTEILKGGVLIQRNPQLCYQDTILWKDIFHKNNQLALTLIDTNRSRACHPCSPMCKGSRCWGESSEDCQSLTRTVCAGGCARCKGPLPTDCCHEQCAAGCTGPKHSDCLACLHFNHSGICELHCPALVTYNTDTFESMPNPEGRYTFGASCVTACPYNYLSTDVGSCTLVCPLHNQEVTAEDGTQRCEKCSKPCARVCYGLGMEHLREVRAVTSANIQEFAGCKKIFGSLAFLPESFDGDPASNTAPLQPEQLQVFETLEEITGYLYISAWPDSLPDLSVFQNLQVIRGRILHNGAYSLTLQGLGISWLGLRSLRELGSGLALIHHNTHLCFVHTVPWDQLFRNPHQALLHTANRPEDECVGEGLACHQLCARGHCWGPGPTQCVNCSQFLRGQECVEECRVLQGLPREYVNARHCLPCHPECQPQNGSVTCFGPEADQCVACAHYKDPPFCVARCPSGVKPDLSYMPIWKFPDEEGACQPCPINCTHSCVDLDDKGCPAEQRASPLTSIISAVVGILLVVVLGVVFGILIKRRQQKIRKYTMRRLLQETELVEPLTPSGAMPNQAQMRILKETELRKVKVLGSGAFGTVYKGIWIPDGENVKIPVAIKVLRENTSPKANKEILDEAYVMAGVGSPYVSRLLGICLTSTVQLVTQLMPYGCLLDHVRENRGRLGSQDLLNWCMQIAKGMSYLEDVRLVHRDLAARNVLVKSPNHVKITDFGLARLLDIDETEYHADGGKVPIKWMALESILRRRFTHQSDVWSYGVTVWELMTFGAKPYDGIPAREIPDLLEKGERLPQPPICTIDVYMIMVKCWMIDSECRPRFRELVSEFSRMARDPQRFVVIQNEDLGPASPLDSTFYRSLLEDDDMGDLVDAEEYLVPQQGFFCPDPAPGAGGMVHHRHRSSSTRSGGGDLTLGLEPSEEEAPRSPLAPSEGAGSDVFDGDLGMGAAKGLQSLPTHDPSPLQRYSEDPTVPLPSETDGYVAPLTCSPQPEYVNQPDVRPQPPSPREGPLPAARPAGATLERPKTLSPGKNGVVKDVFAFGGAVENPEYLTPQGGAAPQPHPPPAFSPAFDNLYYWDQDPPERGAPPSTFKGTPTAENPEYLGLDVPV

In the case of `COc1cc2ncnc3c2cc1OCCCCCN(C)Cc1ccc(Br)cc1N3` [MTKI, 4,6-ethanediylidenepyrimido[4,5-b][6,1,12]benzoxadiazacyclopentadecine, 17-bromo-8,9,10,11,12,13,14,19-octahydro-20-methoxy-13-methyl-], the “potency in lysate inhibition profile compared to Tarceva” value ([1]; H3255 lysate) was “slightly more potent”, the “potency in lysate inhibition profile compared to Tarceva” value ([1]; N87 lysate) was “more potent” and the pIC50 ([2]; BT474OD cell line) was over 5.52. The pIC50 ([2]; COLO 699, Colo699 cell line) was over 5.52, the pIC50 ([2]; HEK239, HEK239 cell line) was under 5.00 and the pIC50 ([2]; HT1373 cell line) was under 5.00. It also gave a pIC50 ([2]; Homo sapiens, A-431, A431 cell line) of over 5.52, a pIC50 ([2]; Homo sapiens, DU-145, DU145 cell line) of over 5.52 and a pIC50 ([2]; Homo sapiens, GTL 16, GTL16 cell line) of under 5.00. It also gave a pIC50 ([2]; Homo sapiens, MCF7, MCF7 cell line) of under 5.00, a pIC50 ([2]; Homo sapiens, MDA-MB-435S, MDAMB435s cell line) of under 5.00 and a pIC50 ([2]; Homo sapiens, MKN-45, MKN45 cell line) of under 5.00. For the same molecule, the pIC50 ([2]; Homo sapiens, MOLT-4, MOLT4 cell line) was under 5.00, the pIC50 ([2]; Homo sapiens, NCI-H23, H23 cell line) was under 5.00 and the pIC50 ([2]; Homo sapiens, NCI-H1650, H1650 cell line) was under 5.00. The pIC50 ([2]; Homo sapiens, NCI-H2009, H2009 cell line) was over 5.52, the pIC50 ([2]; Homo sapiens, NCI-H2122, H2122 cell line) was over 5.52 and the pIC50 ([2]; Homo sapiens, NCI-H3255, H3255 cell line) was over 5.52. It also gave a pIC50 ([2]; Homo sapiens, NCI-N87, NCI-N87 cell line) of over 5.52, a pIC50 ([2]; Homo sapiens, SH-SY5Y, SHSY5Y cell line) of under 5.00 and a pIC50 ([2]; Homo sapiens, SK-BR-3, SKBR3 cell line) of over 5.52. The pIC50 ([2]; Homo sapiens, SNU-5, SNU5 cell line) was under 5.00, the pIC50 ([2]; Homo sapiens, U-118-MG, U118MG cell line) was under 5.00 and the pIC50 ([2]; MDA231PAR cell line) was under 5.00. It also gave a pIC50 ([2]; NCI-H322, H322 cell line) of over 5.52, a pIC50 ([2]; RSJSA1 cell line) of under 5.00 and a pIC50 ([2]; SNU-484, SNU484 cell line) of over 5.52. For the same molecule, the pIC50 ([2]; SUM149, SUM149 cell line) was over 5.52, the pIC50 ([2]; SUM159, SUM159 cell line) was over 5.52 and the “inhibition of Her2 compared to Tarceva” value [3] was “better inhibitor than Tarceva”. The response status ([4]; A431 cell line) was “R”, the response status ([4]; DU145 cell line) was “R” and the response status ([4]; H2009 cell line) was “R”. The response status ([4]; H3255 cell line) was “R”, the response status ([4]; N87 cell line) was “R” and the response status ([4]; SKBR3 cell line) was “R”. The response status ([4]; SUM149 cell line) was “R”.
